Measurements: article PMC12346557, “Design, Synthesis, and Anticancer Evaluation of New Small-Molecule EGFR Inhibitors Targeting NSCLC and Breast Cancer” (International Journal of Molecular Sciences, 2025)

Key:
[1] = tested on: A549 cells; assay: MTT cytotoxicity assay, A549 cells; assay type: cell-based, human; settings: triplicate; for reduction of A549 cell viability: 100 µM, 72 h; for IC50: Homo sapiens, A549, 72 h culture, 1-100 µM
[2] = tested on: Jurkat cells; assay: MTT cytotoxicity assay, Jurkat cells; assay type: cell-based, human; settings: for IC50: Homo sapiens, Jurkat, MTT; for SI (Selectivity Index): IC50 for PBMC/IC50 for Jurkat cell line
Method: A549 and MCF-7 human cancer cell lines were cultured in Dulbecco’s Modified Eagle’s Medium (DMEM) (Wako Pure Chemical Industries, Osaka, Japan) supplemented with 10% fetal bovine serum (FBS) (Equitech-Bio, Kerrville, TX, USA). […] All media were supplemented with 89 μg/mL of streptomycin (Meiji Seika Pharma, Tokyo, Japan). […] Cancer cells and PBMCs were seeded into 24-well and 96-well microtiter tissue culture plates (Iwaki, Asahi Glass Co., Chiba, Japan) at densities of 4 × 10^4 cells/mL and 5 × 10^5 cells/mL, respectively, and incubated for 72 h prior to drug treatment. The optimal seeding density for cytotoxicity assays was determined through preliminary testing. […] The cellular reduction MTT (Dojindo Molecular Technologies, Kumamoto, Japan) was assessed following established protocols from the literature, with slight modifications.

[3] = tested on: MCF-7 cells; assay: Annexin V/ethidium homodimer-III apoptosis staining, MCF-7 cells; assay type: cell-based, human; settings: IC50 concentration, 24 h, compared to control
Method: (§1) In this method, green staining indicates apoptotic cells, red indicates necrotic cells, and yellow represents cells in the late stages of apoptosis. This staining was analyzed using a fluorescence microscope. […] Furthermore, the apoptotic effect of B-2 on MCF-7 cells was assessed, showing that 4.3% of the cells underwent apoptosis after treatment, a result that was statistically significant (Figure 5b).
(§2) A549 and MCF-7 cells were treated with B-1 and B-2 at its IC50 concentration for 24 h. Following treatment, the cells were detached using 0.05% trypsin, washed twice with 1× binding buffer, and incubated in the dark at r.t. for 20 min with a staining solution containing 50 μL of 1× binding buffer, 4 μL of FITC-Annexin V solution, 4 μL of ethidium homodimer III solution, and 4 μL of Hoechst 33342 solution. After staining, the cells were washed again with 1× binding buffer, fixed in 2% paraformaldehyde, rinsed with PBS, and analyzed using the Biorevo Fluorescence BZ-9000 all-in-one fluorescence microscope (Keyence, Osaka, Japan).

[4] = target: T1, recombinant human EGFR (amino acids 695 to C-terminus) (Homo sapiens, UniProt P00533); assay: EGFR Kinase Enzyme System / ADP-Glo kinase assay; assay type: biochemical
T1 construct: recombinant human EGFR (amino acids 695 to C-terminus); purchased Promega Corporation V3831
T1 sequence (P00533 695-1210 limits assumed): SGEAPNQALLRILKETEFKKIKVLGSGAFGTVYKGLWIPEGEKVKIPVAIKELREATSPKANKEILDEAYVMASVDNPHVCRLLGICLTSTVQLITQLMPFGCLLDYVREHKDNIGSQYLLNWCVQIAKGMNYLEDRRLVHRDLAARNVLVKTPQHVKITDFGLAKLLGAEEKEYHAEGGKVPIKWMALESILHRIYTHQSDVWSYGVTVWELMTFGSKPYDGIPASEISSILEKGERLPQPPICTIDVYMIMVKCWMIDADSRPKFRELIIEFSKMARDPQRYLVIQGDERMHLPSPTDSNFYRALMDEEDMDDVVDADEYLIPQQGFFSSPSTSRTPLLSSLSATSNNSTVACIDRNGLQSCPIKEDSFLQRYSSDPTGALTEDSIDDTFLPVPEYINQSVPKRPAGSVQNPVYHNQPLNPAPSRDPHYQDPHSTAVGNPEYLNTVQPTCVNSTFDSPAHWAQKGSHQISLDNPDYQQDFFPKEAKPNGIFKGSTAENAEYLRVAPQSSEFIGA
Method: Overexpression or mutation of the EGFR gene markedly enhances cell growth and proliferation, particularly in NSCLC [41] and breast cancer, making EGFR a well-established and effective therapeutic target for these diseases. Due to their potent activity against NSCLC and breast cancer, B-1 and B-2 were further examined for their potential to inhibit EGFR.
The kinase profiling assay (EGFR Kinase Enzyme System, V3831) was conducted according to the manufacturer’s protocol (Promega Corporation, Madison, WI, USA), with minor modifications. In brief, 95 μL of 2.5× kinase buffer and 15 μL of 100 μM ATP solution were used to prepare dilutions of recombinant human EGFR (amino acids 695 to C-terminus) and its substrate (4:1 Glu:Tyr mixture). Reactions were set up in a 384-well plate, each containing 2 μL of kinase working stock, 2 μL of ATP/substrate working stock, and 1 μL of test compound solution or 5% DMSO as a control. After a 2 h incubation at r.t., kinase activity was measured using the ADP-Glo Kinase Assay (Promega), following the manufacturer’s instructions. Specifically, 5 μL of ADP-Glo Reagent was added to each well and incubated for 40 min, followed by 10 μL of Kinase Detection Reagent and a further 30 min incubation at r.t. Luminescence was recorded using the Infinite M1000 microplate reader (Tecan, Grödig, Austria) with an integration time of 0.5 to 1 s to assess the compounds’ kinase inhibitory effects in a dose-dependent manner.

[5] = tested on: PBMCs; assay: MTT cytotoxicity assay, PBMCs (healthy); assay type: cell-based; settings: PBMC
Method: A549 and MCF-7 human cancer cell lines were cultured in Dulbecco’s Modified Eagle’s Medium (DMEM) (Wako Pure Chemical Industries, Osaka, Japan) supplemented with 10% fetal bovine serum (FBS) (Equitech-Bio, Kerrville, TX, USA). Jurkat cells, derived from human leukemia, were maintained in RPMI 1640 medium (Wako Pure Chemical Industries) with 10% FBS. PBMCs (Precision Bioservices, Frederick, MD, USA) were cultured in RPMI 1640 medium supplemented with 10% human AB serum (HS) (Gemini, Woodland, CA, USA). All media were supplemented with 89 μg/mL of streptomycin (Meiji Seika Pharma, Tokyo, Japan). Cells were incubated at 37 °C in a humidified atmosphere containing 95% air and 5% CO2. Cancer cells and PBMCs were seeded into 24-well and 96-well microtiter tissue culture plates (Iwaki, Asahi Glass Co., Chiba, Japan) at densities of 4 × 10^4 cells/mL and 5 × 10^5 cells/mL, respectively, and incubated for 72 h prior to drug treatment. The optimal seeding density for cytotoxicity assays was determined through preliminary testing. […] The cellular reduction MTT (Dojindo Molecular Technologies, Kumamoto, Japan) was assessed following established protocols from the literature, with slight modifications.

[6] = tested on: MCF-7 cells; assay: MTT cytotoxicity assay, MCF-7 cells; assay type: cell-based; settings: Homo sapiens, triplicate; for inhibition at 100 µM: MCF7, 100 µM, 72 h; for IC50: MCF7, 72 h culture, 1-100 µM
[7] = tested on: A549 cells; assay: Annexin V/ethidium homodimer-III apoptosis staining, A549 cells; assay type: cell-based, human; settings: IC50 concentration, 24 h, compared to control
Method: as §1, §2

| Structure (SMILES) | reduction of A549 cell viability [1] [%] | IC50 [1] [µM] | IC50 [2] [µM] | SI (Selectivity Index) [2] | apoptosis in MCF-7 cells [3] [%] | EGFR inhibition ([4]; 1 μM) | EGFR inhibition ([4]; 10 μM) | IC50 [5] [µM] | inhibition at 100 µM [6] [%] | IC50 [6] [µM] | inhibition at 1 µM ([4]; 1 μM) [%] | inhibition at 10 µM ([4]; 10 μM) [%] | apoptosis in A549 cells [7] [%] |
| --- | --- | --- | --- | --- | --- | --- | --- | --- | --- | --- | --- | --- | --- |
| Cc1ccc(C(=O)/C=C/c2cnc(-c3ccc(Cl)cc3)nc2)cc1 [Compound B-1, (E)-3-(2-(4-Chlorophenyl)pyrimidin-5-yl)-1-(4-methylphenyl)-2-propen-1-one] | 38 | > 100 | 2.12 ± 0.48 | 57.08 | 11.6 | no inhibitory effect | no inhibitory effect | 121 ± 14.8 | 73 | 6.1 ± 1.26 | – | – | – |
| COc1ccc(C(=O)/C=C/c2cnc(-c3ccc(Cl)cc3)nc2)cc1 [Compound B-2, (E)-3-(2-(4-Chlorophenyl)pyrimidin-5-yl)-1-(4-methoxyphenyl)-2-propen-1-one] | 73 | 2.14 ± 0.83 | 2.96 ± 0.44 | 23.20 | 4.3 | – | – | 68.7 ± 9.82 | 52 | 8.91 ± 1.38 | 26 | 66 | 16.8 |
